The source of these data is patent publication US6451837B1, “Neuroprotective effects of mitogen-activated protein kinase (MAPK) cascade inhibitors” (priority 1999, dated 2002).

Format in all cases: cell-based, Wistar rat
Assay [1] relates to cultured hippocampal tissue explants. The assay can be described thus: Cell death induced by transfer to fresh culture medium in cultured hippocampal slices, propidium iodide fluorescence. The protocol:
(§1) Seven day old Wistar rat pups were anaesthetized with fluothane, decapitated and transverse hippocampal slices (400 microns) were cultured for 12 days on 6-well tissue culture plates containing 1 ml of culture medium. The medium composition was 50% minimal essential medium (MEM), 25% horse serum, 25% Earl's balanced salt solution with D-glucose and HEPES, penicillin G and streptomycin sulfate, 5000 units/ml and 5 μg/ml respectively and the pH, 7.15. Slices were cultured at 36.5° C., 100% humidity, 95% air and 5% CO2 atmosphere, and were fed twice weekly by 50% medium exchange. All drugs were dissolved in water or dimethylsulfoxide (DMSO, final concentration was 0.1%) to make stock solutions. Controls for DMSO effects were performed where appropriate. To apply a drug, the stock solution was dissolved in 1 ml of fresh culture medium to make a desired concentration. Then, hippocampal slices were transferred for a specified time interval to the fresh medium containing the drug. To terminate the drug action, slices were again transferred to a fresh medium containing 2 mg/ml propidium iodide (PI). The medium temperature was kept at 36° C. during the transfers. Since the change of medium induced nerve cell death, control experiments were performed by transferring hippocampal slices an equal number of times into the fresh medium with the intervals between transfers equal to the time interval that slices were exposed to the drug. In a separate series of experiments the medium replacement was performed twice with a 30 minute interval in order to induce cell death. Cell death was measured as the PI fluorescence intensity by using MRC-600 Laser Scanning Confocal Imaging System. PI was added to the medium 30 minutes prior to taking control images (immediately before the drug treatment). […] Each experiment was performed at least in triplicate, on 5-6 slices each time and data expressed as an average of all experiments. Cell death index was derived from PI fluorescence intensity normalized to the intensity values obtained after the 48 hour exposure of slices to an ambient temperature of 4° C. […]

Assay [2] shares this test system. In words: NMDA-induced cell death in cultured hippocampal slices, propidium iodide fluorescence. Particulars: for neuroprotection to nerve cells, as described in Example 1: PD098059 about 30-90 μM, apigenin about 25-100 μM; for number of dead cells lower than in explants treated with NMDA alone: staurosporine 0.2 μM; for reduction of NMDA toxicity: treated 2 hours prior to NMDA 50 μM, PD098059 30-90 μM, wortmannin 1-5 μM, FIG. 2-4.

The test system is the same in assay [3]. In words: Cell death induced by amyloid β-protein fragment 25-35 in cultured hippocampal slices. Particulars: 30-90 μM for 2 hours prior to the addition of toxic peptides. Here is the method:
as §1, with “To terminate the drug action, slices were again transferred to a fresh medium containing 2 mg/ml propidium iodide (PI). The medium temperature was kept at 36° C. during the transfers. Since the change of medium induced nerve cell death, control experiments were performed by transferring hippocampal slices an equal number of times into the fresh medium with the intervals between transfers equal to the time interval that slices were exposed to the drug. In a separate series of experiments the medium replacement was performed twice with a 30 minute interval in order to induce cell death.” left out, “System.” for “System. PI was added to the medium 30 minutes prior to taking control images (immediately before the drug treatment).”

The mark [4] stands for this setting: 24 hours after NMDA exposure, FIG. 5.

As to `NC(CCCP(=O)(O)O)C(=O)O` (stereo not shown) [AP5], the “block of the increase in cell death caused by transfers to fresh medium” value in assay [1] (AP5 20 μM, CA1-CA4 and dentate gyrus) was “not blocked”.
Regarding `O=c1cc(-c2ccc(O)cc2)oc2cc(O)cc(O)c12` [apigenin], the “neuroprotection to nerve cells, as described in Example 1” value in assay [2] is given as “effective in providing neuroprotection”.
`CN[C@H](CC(=O)O)C(=O)O` [NMDA, N-methyl-D-aspartate]: the “cells killed, relative to 4° C. exposure taken as 100% of cells” value in assay [2] (50 μM NMDA, 30 minutes exposure) was “approximately 30%”. The “cell death in the dentate gyrus” value in assay [2] (NMDA 2.5-500 μM) is reported as “did not induce concentration-dependent increase in cell death”. Further, the “cell death in the CA1-CA4 region of the hippocampus” value in assay [2] (NMDA 2.5-500 μM for 30 minutes) is on record as “marked cell death”.
Consider `N[C@H](CCCP(=O)(O)O)C(=O)O` [d-APV], for which the “block of NMDA-induced cell death” value in assay [2] (slices exposed to NMDA for 30 minutes) was “could be blocked”.
For the molecule `COc1cccc(-c2cc(=O)c3ccccc3o2)c1N` [PD098059, 2-(2′-amino-3′methoxyphenyl)-oxanaphthalen-4-one], in assay [1] (24 hours, PD098059 30-90 μM for 2 hours prior, wortmannin 1 μM, FIG. 6), the “cell death after exposure to fresh medium at 24 hours” value is on record as “significantly reduced cell death”. Also, in assay [1] (72 hours, PD098059 30-90 μM for 2 hours prior, wortmannin 1 μM, FIG. 6), the “cell death after exposure to fresh medium at 72 hours” value was “significantly reduced cell death”. Besides, in assay [2] (setting [4]), the “number of dead cells lower than in explants treated with staurosporine” value was 33% and the “number of dead cells lower than in explants treated with NMDA alone” value was found to be 95%. Also, in assay [2], the “neuroprotection to nerve cells, as described in Example 1” value is “effective in providing neuroprotection” and the “reduction of NMDA toxicity” value is on record as “significantly reduced NMDA toxicity”. Moreover, in assay [2] (applied immediately after NMDA), the “reduction of NMDA-induced cell death” value is recorded as “effective in reducing NMDA-induced cell death”. For the same molecule, in assay [3], the “cell death induced by toxic amyloid peptides” value is “prevented cell death”.
In the case of `CN[C@@H]1C[C@H]2O[C@@](C)([C@@H]1OC)n1c3ccccc3c3c4c(c5c6ccccc6n2c5c31)C(=O)NC4` [staurosporine], in assay [2] (setting [4]), the “number of dead cells lower than in explants treated with NMDA alone” value worked out at 45%. For the same molecule, the “reduction of NMDA toxicity” value in assay [2] was “somewhat effective”.
